Assay results reported in US10925858B2, “S-nitrosoglutathione (GSNO) and GSNO reductase inhibitors for use in therapy” (MUSC FOUNDATION FOR RESEARCH DEVELOPMENT, priority 2017, dated 2021).

Tests used:
[1] = system: protein-associated 3-nitrotyrosine; assay: Assay for protein-associated nitrotyrosine in hBMVECs; assay type: cell-based, human; conditions: thrombin 0.1 unit/ml 20 min; L-NIO or FeTPPS 10 μM pretreated 30 min; ELISA
Method: Cell culture: Primary human brain microvascular endothelial cells (hBMVECs) were purchased from Angio-Proteomie (Cat #: cAP-0002, Atlanta, Ga.). The cells were cultured in cell culture flasks or plates precoated with Quick Coating Solution (Angio-Proteomie; Cat #: cAP-01) and maintained in Endothelial Growth Medium (Angio-Proteomie; Cat #: cAP-02) at 37° C. under 5% CO2/95% air. When the cells were almost confluent, the medium was replaced with endothelial basal medium (Angio-Proteomie; Cat #: cAP-03) containing 0.5% fetal bovine serum (FBS; Life Technologies, Grand Island, N.Y.) about 8-12 hours before the experiment. No institutional approval was required for this study. The study was not pre-registered.
Cellular levels of protein-associated 3-nitrotyrosine were analyzed by ELISA Kit (Abeam, Cat #: ab116691) and Western blot analysis using antibody specific to 3-nitrotyrosine (Abeam, Cat #: ab61392). For the ELISA, hBMVECs were lysed in extraction buffer provided with the kit followed by centrifugation at 16,000×g 4° C. The cell lysate supernatants were subjected to protein quantification with Bio-Rad DC protein assay kit (Bio-Rad, Hercules, Calif.) and the equal amounts of proteins (500 μg) were loaded onto 96 well microplate coated with 3-nitrotyrosine capture antibody and followed by incubation with biotin-conjugated 3-nitrotyrosine detector antibody. Following washing, the plates were incubated with HRP-conjugated streptoavidin and the levels of 3-nitrotyrosine were measured by incubation with 3,3′,5,5′-tetramethylbenzidine solution and colorimetric analysis at […] using SpectraMax 190 Microplate Reader (Molecular Devices, Sunnyvale, Calif.). For analysis of degree of RhoA tyrosine nitration, the cell lysates were immunoprecipiated with antibody specific to 3-nitrotyrosine (Abeam) and the levels of tyrosine nitrated RhoA were analyzed by Western analysis for RhoA.

[2] = system: tight junction proteins (ZO-1, Occludin, Claudin-5); assay: Real-time PCR, mRNA expression of tight junction proteins in brain microvessels of diabetic mice; assay type: in vivo
Method: Male laca mice weighing between 28-32 g were procured from the Central Animal House, Panjab University, Chandigarh. The animals were acclimatized and were fed with standard pellet diet and water ad libitum. The experimental protocols were approved by the Institutional Ethics Committee and were conducted according to Indian National Science Academy (INSA) guidelines for the use and care of experimental animals. The animals were divided into four groups: (i) Control animals received phosphate buffered saline (PBS) throughout the study; (ii) Control+GSNO animals were administered with GSNO 100 μg/kg body weight orally, dissolved in PBS after every 24 h for 8 weeks; (iii) Diabetic animals were injected with STZ at a dose of 40 mg/kg body weight intraperitoneally for 5 days dissolved in 0.1 mol/L citrate buffer, pH 4.5 and Diabetic+GSNO mice were administered GSNO 100 μg/kg body weight orally dissolved in PBS after every 24 h for 8 weeks after the induction of diabetes. Animals were assessed weekly for development of diabetic encephalopathy in terms of memory deficits. All experimental procedures were done on mice at the end of study.
The microvessels were isolated by the method described by Brooks et al., (2005). Brain tissue was homogenized in microisolation buffer (103 mM NaCl, 4.7 mM KCl, 2.5 mM CaCb, 1.2 mM KH2PO4, 1.2 mM MgSO4, 15 mM HEPES, 2.5 mM NaHCO3, 10 mM D-glucose, 1 mM sodium pyruvate and 10 g/L dextran (64,000 mol wt), pH 7.4) and equal amount of 26% (w/v) dextran was added. […]
PCR Total RNA was extracted from microvessels obtained from brain tissue using TriReagent®. […] The concentration of RNA obtained was determined by 260/280 nm ratio using a Nanodrop™ Spectrophotometer (Nanodrop™ 1000, Thermo Scientific®, Waltham, USA). The integrity and overall quality of RNA was evaluated using agarose gel electrophoresis. […] The data obtained was analyzed by the LightCycler 480 Software, Version 1.5. […] Glyceraldehyde-3-phosphate dehydrogenase was used as the reference gene and the relative gene expression was determined using delta-delta Ct method as described by Pfaffl et al., (2002).

[3] = cortex and hippocampus, diabetic mice + GSNO 100 μg/kg oral 8 weeks, vs diabetic

Cl.O=S(=O)([O-])c1ccc(-c2c3nc(c(-c4ccc(S(=O)(=O)O)cc4)c4ccc([nH]4)c(-c4ccc(S(=O)(=O)O)cc4)c4nc(c(-c5ccc(S(=O)(=O)O)cc5)c5ccc2[nH]5)C=C4)C=C3)cc1.[Fe] [FeTPPS, 5,10,15,20-Tetrakis(4-sulfonatophenyl)porphyrinato Iron (III), Cl, reference compound]
thrombin-induced 3-nitrotyrosine levels [1]: inhibited

N[C@@H](CCC(=O)N[C@@H](CSN=O)C(=O)NCC(=O)O)C(=O)O [GSNO, S-nitrosoglutathione]
mRNA expression of claudin-5 ([2]; GSNO treated diabetic animals): no significant change | mRNA expression of ZO-1 [2, 3]: 2 fold | mRNA expression of occludin [2, 3]: 2 fold
